Reference: publication PMC8898874, “NPT1220-312, a TLR2/TLR9 Small Molecule Antagonist, Inhibits Pro-Inflammatory Signaling, Cytokine Release, and NLRP3 Inflammasome Activation” (International Journal of Inflammation, 2022)

What was measured:
[1] = target: T1, TLR2/6 (Homo sapiens, UniProt O60603); test: HEK-Blue hTLR2 SEAP reporter assay, Pam2CSK4-activated (TLR2/6); type: cell-based; conditions: hTLR2 HEK cells activated with Pam2CSK4; mean of at least three determinations; read-out: IC50 (PAM-2; μM)
T1 construct: host or cells: HEK293 (HEK-Blue hTLR2)
T1 sequence (O60603 21-784): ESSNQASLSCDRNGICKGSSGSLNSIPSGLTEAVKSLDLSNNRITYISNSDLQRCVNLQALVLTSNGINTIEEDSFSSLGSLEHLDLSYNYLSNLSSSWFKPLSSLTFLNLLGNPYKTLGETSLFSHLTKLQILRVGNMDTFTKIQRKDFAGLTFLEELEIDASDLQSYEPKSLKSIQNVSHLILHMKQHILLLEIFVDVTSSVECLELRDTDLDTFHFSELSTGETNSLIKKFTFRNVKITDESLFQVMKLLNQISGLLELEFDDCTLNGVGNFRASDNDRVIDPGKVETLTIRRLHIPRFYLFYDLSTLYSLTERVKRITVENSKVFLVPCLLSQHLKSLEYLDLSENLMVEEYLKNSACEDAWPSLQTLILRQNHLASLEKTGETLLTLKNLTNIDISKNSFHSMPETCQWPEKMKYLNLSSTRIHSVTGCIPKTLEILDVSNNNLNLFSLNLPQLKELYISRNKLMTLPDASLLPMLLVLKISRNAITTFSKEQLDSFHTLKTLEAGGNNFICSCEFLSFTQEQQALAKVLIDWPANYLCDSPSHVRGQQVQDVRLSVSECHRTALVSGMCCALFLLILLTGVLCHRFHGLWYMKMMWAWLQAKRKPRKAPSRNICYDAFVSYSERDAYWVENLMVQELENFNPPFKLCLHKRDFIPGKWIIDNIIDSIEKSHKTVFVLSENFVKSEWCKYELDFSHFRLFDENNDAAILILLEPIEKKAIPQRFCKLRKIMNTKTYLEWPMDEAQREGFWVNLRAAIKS
From the text: (§1) Human embryonic kidney (HEK) Blue hTLR2 secreted embryonic alkaline phosphatase (SEAP) reporter 293 cells, expressing the human TLR2 gene; HEK-Blue hTLR3 SEAP reporter 293 cells, expressing the human TLR3 gene; HEK-Blue hTLR4 SEAP reporter 293 cells, expressing the human TLR4 gene; HEK-Blue hTLR7 SEAP reporter 293 cells, expressing the human TLR7 gene; and HEK-Blue hTLR8 SEAP reporter 293 cells, expressing the human TLR8 gene. HEK Blue cells expressing recombinant human TLRs were obtained by cotransfection of the human TLR2, TLR3, TLR4, TLR7, TLR8, or TLR9 and SEAP (secreted embryonic alkaline phosphatase) genes into HEK293 cells. The SEAP reporter gene was placed under the control of a minimal promoter fused to five NFĸB and AP-1 binding sites. Stimulation with TLRs ligands activates NFĸB and AP-1 that induce the production of SEAP. Therefore, these cells are designed for studying the stimulation of TLRs by monitoring the activation of NFĸB/AP-1. These NFĸB reporter cell lines were used as a primary screening tool due to their robust and well-characterized responses to TLRs activators and inhibitors. […]

[2] = target: T2, TLR1/2 (Homo sapiens, UniProt O60603); test: HEK-Blue hTLR2 SEAP reporter assay, Pam3CSK4-activated (TLR1/2); type: cell-based; conditions: hTLR2 HEK cells activated with Pam3CSK4; mean of at least three determinations; read-out: IC50 (PAM-3; μM)
T2 construct: host or cells: HEK293 (HEK-Blue hTLR2)
T2 sequence (O60603 21-784): as above
From the text: as §1

SMILES: COc1cccc(C=O)c1O [O-vanillin]
- IC50 [1]: 61.6 µM
- IC50 [2]: 40.2 µM
